Test results from publication PMC6001238, “Iterative Chemical Engineering of Vancomycin Leads to Novel Vancomycin Analogs With a High in Vitro Therapeutic Index” (Frontiers in Microbiology, 2018).
Values after ≈ are worked out from the molar mass of the structure shown.

Columns and labels:
E. faecalis VSE 1 = experiment: MIC, broth microdilution, vancomycin-sensitive E. faecalis (VSE 1); type: cell-based, Enterococcus faecalis; details: for MIC: Enterococcus faecalis VSE 1 (vancomycin-sensitive), read-out: MIC; for MIC-fold improvement vs. vancomycin: VSE 1, ratio of MIC of vancomycin and MIC of analogue
Protocol: (§1) The minimum inhibitory concentration (MIC) was determined using the broth microdilution method according to the antimicrobial susceptibility testing standards of the clinical and laboratory standards institute ([Clinical and Laboratory Standards Institute [CLSI], 2012]). Ultrapure water and non-inoculated broth were used as controls. In one case, a final concentration of 10 μM vancomycin was included with the vancomycin analog or control antibiotic.

E. faecalis VRE 6 = experiment: MIC, broth microdilution, vancomycin-resistant E. faecalis VRE 6 (VanA); type: cell-based, Enterococcus faecalis; details: for MIC: Enterococcus faecalis VRE 6 (vancomycin-resistant), read-out: MIC; for MIC-fold improvement vs. vancomycin: VRE 6, ratio of MIC of vancomycin and MIC of analogue
Protocol: as §1

E. faecalis VRE 53 = experiment: MIC, broth microdilution, vancomycin-resistant E. faecalis VRE 53 (VanA); type: cell-based, Enterococcus faecalis; details: for MIC: Enterococcus faecalis VRE 53 (vancomycin-resistant), read-out: MIC; for MIC-fold improvement vs. vancomycin: VRE 53, ratio of MIC of vancomycin and MIC of analogue
Protocol: as §1

E. faecalis VRE 29 = experiment: MIC, broth microdilution, vancomycin-resistant E. faecalis VRE 29 (VanA); type: cell-based, Enterococcus faecalis; details: for MIC: Enterococcus faecalis VRE 29 (vancomycin-resistant), read-out: MIC; for MIC-fold improvement vs. vancomycin: VRE 29, ratio of MIC of vancomycin and MIC of analogue
Protocol: as §1

E. faecalis VRE 37 = experiment: MIC, broth microdilution, vancomycin-resistant E. faecalis VRE 37 (VanA); type: cell-based, Enterococcus faecalis; details: for MIC: Enterococcus faecalis VRE 37 (vancomycin-resistant), read-out: MIC; for MIC-fold improvement vs. vancomycin: VRE 37, ratio of MIC of vancomycin and MIC of analogue
Protocol: as §1

[1] = tested on: Murine leukemia (L1210) cells; experiment: Cytostatic activity, L1210 cell proliferation; type: cell-based; details: mean ± SD of three experiments; highest concentration tested 250 µM; 2 days; read-out: Toxicity (IC50) L1210
Protocol: (§2) Murine leukemia (L1210), human T-lymphocyte (CEM) and the human cervix carcinoma (HeLa) cell line were suspended at 300,000–500,000 cells/mL of culture medium, and 100 μL of a cell suspension was added to 100 μL of an appropriate dilution of the test compounds in wells of 96-well microtiter plates. After incubation at 37°C for 2 (L1210), 3 (CEM), or 4 (HeLa) days, the cell number was determined using a Coulter counter. The IC50 was defined per cell type as the compound concentration required to inhibit cell proliferation by 50% compared to the negative control ([Glowacka et al., 2017]).

[2] = tested on: human T-lymphocyte (CEM) cells; experiment: Cytostatic activity, CEM cell proliferation; type: cell-based; details: mean ± SD of three experiments; highest concentration tested 250 µM; 3 days; read-out: Toxicity (IC50) CEM
Protocol: as §2

[3] = tested on: human cervix carcinoma (HeLa) cells; experiment: Cytostatic activity, HeLa cell proliferation; type: cell-based; details: mean ± SD of three experiments; highest concentration tested 250 µM; 4 days; read-out: Toxicity (IC50) HeLa
Protocol: as §2

[4] = tested on: L1210, CEM and HeLa cell lines; experiment: Cytostatic activity, average or summary over L1210, CEM and HeLa; type: cell-based; details: average of L1210, CEM and HeLa; read-out: Toxicity (IC50) Average
Protocol: as §2

[5] = tested on: S. aureus VSSA (ATCC 6538); experiment: MIC, broth microdilution, vancomycin-sensitive S. aureus (VSSA/MSSA, ATCC 6538); type: cell-based, Staphylococcus aureus; details: for MIC: Staphylococcus aureus VSSA, read-out: MIC; for MIC-fold improvement vs. vancomycin: VSSA, ratio of MIC of vancomycin and MIC of analogue
Protocol: as §1

S. aureus VISA/HIP5827 = experiment: MIC, broth microdilution, vancomycin-intermediate S. aureus VISA HIP5827; type: cell-based, Staphylococcus aureus; details: for MIC: Staphylococcus aureus VISA/HIP5827, read-out: MIC; for MIC-fold improvement vs. vancomycin: VISA/HIP5827, ratio of MIC of vancomycin and MIC of analogue
Protocol: as §1

S. aureus VRSA = experiment: MIC, broth microdilution, vancomycin-resistant S. aureus (VRSA); type: cell-based, Staphylococcus aureus; details: for MIC: Staphylococcus aureus VRSA, read-out: MIC; for MIC-fold improvement vs. vancomycin: VRSA, ratio of MIC of vancomycin and MIC of analogue
Protocol: as §1

MRSA KS2 = experiment: MIC, broth microdilution, MRSA KS2; type: cell-based, Staphylococcus aureus; details: for MIC-fold improvement vs. vancomycin: MRSA KS2, ratio of MIC of vancomycin and MIC of analogue; for MIC: Staphylococcus aureus MRSA KS2, read-out: MIC
Protocol: as §1

MRSA KS6 = experiment: MIC, broth microdilution, MRSA KS6; type: cell-based, Staphylococcus aureus; details: for MIC-fold improvement vs. vancomycin: MRSA KS6, ratio of MIC of vancomycin and MIC of analogue; for MIC: Staphylococcus aureus MRSA KS6, read-out: MIC
Protocol: as §1

MRSA KS89 = experiment: MIC, broth microdilution, MRSA KS89; type: cell-based, Staphylococcus aureus; details: for MIC-fold improvement vs. vancomycin: MRSA KS8, ratio of MIC of vancomycin and MIC of analogue; for MIC: Staphylococcus aureus MRSA KS8, read-out: MIC
Protocol: as §1

MRSA KS1 = experiment: MIC, broth microdilution, MRSA KS1; type: cell-based, Staphylococcus aureus; details: for MIC-fold improvement vs. vancomycin: MRSA KS1, ratio of MIC of vancomycin and MIC of analogue; for MIC: Staphylococcus aureus MRSA KS1, read-out: MIC
Protocol: as §1

Row | Structure (SMILES) | MIC (E. faecalis VSE 1) | MIC-fold improvement vs. vancomycin (E. faecalis VSE 1) | MIC (E. faecalis VRE 6) | MIC-fold improvement vs. vancomycin (E. faecalis VRE 6) | MIC (E. faecalis VRE 53) | MIC-fold improvement vs. vancomycin (E. faecalis VRE 53) | MIC (E. faecalis VRE 29) | MIC-fold improvement vs. vancomycin (E. faecalis VRE 29) | MIC (E. faecalis VRE 37) | IC50 [1] | IC50 [2] | IC50 [3] | IC50 [4] | MIC [5] | MIC-fold improvement vs. vancomycin [5] | MIC (S. aureus VISA/HIP5827) | MIC-fold improvement vs. vancomycin (S. aureus VISA/HIP5827) | MIC (S. aureus VRSA) | MIC-fold improvement vs. vancomycin (S. aureus VRSA) | MIC-fold improvement vs. vancomycin (MRSA KS2) | further results
1 | CNC(CC(C)C)C(=O)NC1C(=O)NC(CC(N)=O)C(=O)NC2C(=O)NC3C(=O)NC(C(=O)NC(C(=O)NCCCNC(=O)c4cc5cc(F)ccc5[nH]4)c4cc(O)cc(O)c4-c4cc3ccc4O)C(O)c3ccc(c(Cl)c3)Oc3cc2cc(c3OC2OC(CO)C(O)C(O)C2OC2CC(C)(N)C(O)C(C)O2)Oc2ccc(cc2Cl)C1O (stereo not drawn) [Vanc-45] | 0.39 µM (≈ 0.65 µg/mL) | 4 | 3.13 µM (≈ 5.22 µg/mL) | 64 | 25 µM (≈ 41.7 µg/mL) | 16 | 12.5 µM (≈ 20.8 µg/mL) | 32 | 12.5 µM (≈ 20.8 µg/mL) | > 250 µM | > 250 µM | > 250 µM | > 250 µM | 0.39 µM (≈ 0.65 µg/mL) | 2 | 1.56 µM (≈ 2.6 µg/mL) | 4 | 1.56 µM (≈ 2.6 µg/mL) | 64 | 2 | MIC (MRSA KS2): 0.39 µM (≈ 0.65 µg/mL); MIC-fold improvement vs. vancomycin (MRSA KS6): 0.25; MIC (MRSA KS6): 3.13 µM (≈ 5.22 µg/mL); MIC-fold improvement vs. vancomycin (MRSA KS89): 2; MIC (MRSA KS89): 0.39 µM (≈ 0.65 µg/mL); MIC-fold improvement vs. vancomycin (MRSA KS1): 2; MIC (MRSA KS1): 0.39 µM (≈ 0.65 µg/mL)
2 | CN[C@H](CC(C)C)C(=O)N[C@H]1C(=O)N[C@@H](CC(N)=O)C(=O)N[C@H]2C(=O)N[C@H]3C(=O)N[C@H](C(=O)N[C@H](C(=O)NCC(=O)Nc4ccc(NS(=O)(=O)c5ccccc5)cc4)c4cc(O)cc(O)c4-c4cc3ccc4O)[C@H](O)c3ccc(c(Cl)c3)Oc3cc2cc(c3O[C@@H]2O[C@H](CO)[C@@H](O)[C@H](O)[C@H]2O[C@H]2C[C@](C)(N)[C@H](O)[C@H](C)O2)Oc2ccc(cc2Cl)[C@H]1O [Vanc-60] | 0.39 µM (≈ 0.677 µg/mL) | 4 | 12.5 µM (≈ 21.7 µg/mL) | 16 | 12.5 µM (≈ 21.7 µg/mL) | 32 | 12.5 µM (≈ 21.7 µg/mL) | 32 | 25 µM (≈ 43.4 µg/mL) | > 250 µM | 219 ± 44 µM | 75 ± 29 µM | 181 µM | 0.39 µM (≈ 0.677 µg/mL) | 2 | 0.78 µM (≈ 1.35 µg/mL) | 8 | 0.39 µM (≈ 0.677 µg/mL) | 256 | 2 | MIC-fold improvement vs. vancomycin (E. faecalis VRE 37): 16; MIC (MRSA KS2): 0.39 µM (≈ 0.677 µg/mL); MIC-fold improvement vs. vancomycin (MRSA KS6): 1; MIC (MRSA KS6): 0.78 µM (≈ 1.35 µg/mL); MIC-fold improvement vs. vancomycin (MRSA KS89): 2; MIC (MRSA KS89): 0.39 µM (≈ 0.677 µg/mL); MIC-fold improvement vs. vancomycin (MRSA KS1): 2; MIC (MRSA KS1): 0.39 µM (≈ 0.677 µg/mL)
3 | CNC(CC(C)C)C(=O)NC1C(=O)NC(CC(N)=O)C(=O)NC2C(=O)NC3C(=O)NC(C(=O)NC(C(=O)NCC(=O)Nc4ccc(-c5cn(-c6ccc(OC)cc6)nn5)cc4)c4cc(O)cc(O)c4-c4cc3ccc4O)C(O)c3ccc(c(Cl)c3)Oc3cc2cc(c3OC2OC(CO)C(O)C(O)C2OC2CC(C)(N)C(O)C(C)O2)Oc2ccc(cc2Cl)C1O (stereo not drawn) [Vanc-72] | 0.78 µM (≈ 1.37 µg/mL) | 2 | 3.13 µM (≈ 5.49 µg/mL) | 64 | 6.25 µM (≈ 11 µg/mL) | 64 | 6.25 µM (≈ 11 µg/mL) | 64 | 6.25 µM (≈ 11 µg/mL) | 173 ± 106 µM | 17 ± 1 µM | 25 ± 10 µM | 72 µM | 0.39 µM (≈ 0.684 µg/mL) | 2 | 0.78 µM (≈ 1.37 µg/mL) | 8 | 0.78 µM (≈ 1.37 µg/mL) | 128 | 4 | MIC-fold improvement vs. vancomycin (E. faecalis VRE 37): 64; MIC (MRSA KS2): 0.20 µM (≈ 0.351 µg/mL); MIC-fold improvement vs. vancomycin (MRSA KS6): 4; MIC (MRSA KS6): 0.20 µM (≈ 0.351 µg/mL); MIC-fold improvement vs. vancomycin (MRSA KS89): 4; MIC (MRSA KS89): 0.20 µM (≈ 0.351 µg/mL); MIC-fold improvement vs. vancomycin (MRSA KS1): 0.5; MIC (MRSA KS1): 1.56 µM (≈ 2.74 µg/mL)
4 | CN[C@H](CC(C)C)C(=O)N[C@H]1C(=O)N[C@@H](CC(N)=O)C(=O)N[C@H]2C(=O)N[C@H]3C(=O)N[C@H](C(=O)N[C@H](C(=O)NCC(=O)Nc4ccc(Cl)cn4)c4cc(O)cc(O)c4-c4cc3ccc4O)[C@H](O)c3ccc(c(Cl)c3)Oc3cc2cc(c3O[C@@H]2O[C@H](CO)[C@@H](O)[C@H](O)[C@H]2O[C@H]2C[C@](C)(N)[C@H](O)[C@H](C)O2)Oc2ccc(cc2Cl)[C@H]1O [Vanc-44] | 0.78 µM (≈ 1.26 µg/mL) | 2 | 12.5 µM (≈ 20.2 µg/mL) | 16 | 50 µM (≈ 80.8 µg/mL) | 8 | 25 µM (≈ 40.4 µg/mL) | 16 | 25 µM (≈ 40.4 µg/mL) | ≥ 250 µM | ≥ 250 µM | 108 ± 38 µM | 203 µM | 0.78 µM (≈ 1.26 µg/mL) | 1 | 1.56 µM (≈ 2.52 µg/mL) | 4 | 12.5 µM (≈ 20.2 µg/mL) | 8 | 1 | MIC-fold improvement vs. vancomycin (E. faecalis VRE 37): 16; MIC (MRSA KS2): 0.78 µM (≈ 1.26 µg/mL); MIC-fold improvement vs. vancomycin (MRSA KS6): 0.25; MIC (MRSA KS6): 3.13 µM (≈ 5.06 µg/mL); MIC-fold improvement vs. vancomycin (MRSA KS89): 1; MIC (MRSA KS89): 0.78 µM (≈ 1.26 µg/mL); MIC-fold improvement vs. vancomycin (MRSA KS1): 1; MIC (MRSA KS1): 0.78 µM (≈ 1.26 µg/mL)
